Calls of active or inactive are those of the source. No cut-off for these calls is given here.
Experiments:
Format in all cases: functional, cell-based
HeLa C3 [1] = assay: Induction of apoptosis in human HeLaC3 cells assessed as reduction of yellow fluorescent protein/cyan fluorescent protein emission ratio below 3 at 100 uM after 72 hrs by FRET assay
HeLa C3 [2] = assay: Induction of apoptosis in human HeLaC3 cells assessed as reduction of yellow fluorescent protein/cyan fluorescent protein emission ratio below 3 at 50 uM after 72 hrs by FRET assay
HeLa C3 [3] = assay: Induction of apoptosis in human HeLaC3 cells assessed as reduction of yellow fluorescent protein/cyan fluorescent protein emission ratio below 3 at 25 uM after 72 hrs by FRET assay
HeLa C3 [4] = assay: Induction of apoptosis in human HeLaC3 cells assessed as reduction of yellow fluorescent protein/cyan fluorescent protein emission ratio below 3 at 10 uM after 72 hrs by FRET assay
HeLa [5] = assay: Cytotoxicity against human HeLa cells after 72 hrs by MTT assay
HeLa C3 [6] = assay: Induction of apoptosis in human HeLaC3 cells assessed as morphological changes at 25 uM after 24 to 72 hrs
HeLa C3 [7] = assay: Induction of apoptosis in human HeLaC3 cells assessed as reduction of yellow fluorescent protein/cyan fluorescent protein emission ratio below 3 at 25 uM after 48 hrs by FRET assay
HeLa [8] = assay: Induction of apoptosis in human HeLa cells assessed as cleavage of PARP at 25 uM after 12 hrs by Western blotting
HeLa [9] = assay: Induction of apoptosis in human HeLa cells assessed as cleavage of PARP at 25 uM after 36 hrs by Western blotting
HeLa C3 [10] = assay: Induction of apoptosis in human HeLaC3 cells at < 100 uM after 72 hrs
HeLa C3 [11] = assay: Induction of apoptosis in human HeLaC3 cells assessed as reduction of yellow fluorescent protein/cyan fluorescent protein emission ratio below 3 at 25 uM after 24 hrs by FRET assay
HeLa C3 [12] = assay: Induction of apoptosis in human HeLaC3 cells at 50 to 100 uM after 72 hrs
HeLa C3 [13] = assay: Induction of apoptosis in human HeLaC3 cells assessed as morphological changes at 500 nM after 24 to 72 hrs

Compound | Activity (HeLa C3 [1]) | Activity (HeLa C3 [2]) | Activity (HeLa C3 [3]) | Activity (HeLa C3 [4]) | IC50 (HeLa [5]) [µM] | Activity (HeLa C3 [6]) | Activity (HeLa C3 [7]) | Activity (HeLa [8]) | Activity (HeLa [9]) | Activity (HeLa C3 [10]) | Activity (HeLa C3 [11]) | Activity (HeLa C3 [12]) | Activity (HeLa C3 [13])
COC(=O)c1c(O)cc(O)cc1Oc1c(O)c(OC)cc(CC=C(C)C)c1OC [PAUCINERVIN B] | Active | Active | Active | inactive | 9.5 | Active | Active | Active | Active | – | – | – | –
CC1=C(C)C(=O)C(CCC(C)(O)CCCC(C)CCCC(C)CCCC(C)C)=C(C)C1=O (configuration not stated) | inactive | inactive | inactive | inactive | – | – | – | – | – | Active | – | – | –
CC(C)=CCC/C(C)=C/CC/C(C)=C/CCC1(C)CCc2c(C)cc(O)c(O)c2O1 (configuration not stated) [PAUCINERVIN D] | Active | Active | inactive | inactive | 29.5 | – | – | – | – | – | – | – | –
COc1c(O)c(CC=C(C)C)cc2c1Oc1cc(O)c(CC=C(C)C)c(O)c1C(=O)O2 [PAUCINERVIN A] | Active | inactive | inactive | inactive | 95.6 | – | – | – | – | – | – | – | –
CC(C)=CCc1c(O)cc2oc3ccc(O)cc3c(=O)c2c1O | inactive | inactive | inactive | inactive | – | – | – | – | – | Active | – | – | –
CC(C)=CCc1c(O)cc(O)c2c(=O)c3cc4c(c(O)c3oc12)OC(C)(C)C=C4 | Active | Active | Active | inactive | – | Active | – | – | – | – | – | – | –
CC(C)=CC[C@H]1C[C@@]23C[C@@H](CC=C(C)C)C(C)(C)[C@@](CC=C(C)C)(C(=O)C(C(=O)c4ccc(O)c(O)c4)=C2OC1(C)C)C3=O | inactive | inactive | Active | inactive | – | Active | – | – | – | – | Active | Active | –
CC1=CCCC(C)(C)C1CCC(C)CCCC(C)CCO (configuration not stated) | inactive | inactive | inactive | inactive | – | – | – | – | – | – | – | – | –
C=C(C)[C@H]1C/C=C(\C)CC/C=C(\C)CC/C=C(\C)CC1 | Active | inactive | inactive | inactive | – | – | – | – | – | – | – | – | –
CC(=O)O[C@H]1C(=O)[C@@]2(C)[C@H]([C@H](OC(=O)c3ccccc3)[C@]3(O)C[C@H](OC(=O)[C@H](O)[C@@H](NC(=O)c4ccccc4)c4ccccc4)C(C)=C1C3(C)C)[C@]1(OC(C)=O)CO[C@@H]1C[C@@H]2O | – | – | – | – | – | – | – | – | – | – | – | – | Active
C=CC(C)(C)c1c(OC)c(CC=C(C)C)c(O)c2c(=O)c3ccc(O)c(O)c3oc12 | Active | Active | inactive | inactive | – | – | – | – | – | – | – | – | –
CC(C)=CCc1cc2c(=O)c3c(O)c(CC=C(C)C)c(O)c(CC=C(C)C)c3oc2c(O)c1O | Active | Active | inactive | inactive | – | – | – | – | – | – | – | – | –
C=C(C)[C@@H]1C[C@]23C[C@H](CC=C(C)C)C(C)(C)[C@](CC=C(C)C)(C(=O)C(C(=O)c4ccc(O)c(O)c4)=C2O[C@H]1C=C(C)C)C3=O | Active | Active | Active | inactive | – | Active | – | – | – | – | Active | – | –
CC1(C)C=Cc2c(c3ccoc3c3oc4c(O)cccc4c23)O1 [PAUCINERVIN C] | Active | inactive | inactive | inactive | 52.5 | – | – | – | – | – | – | – | –
CC(C)=CCC/C(C)=C/C[C@H]1C[C@]2(CC=C(C)C)C(=O)[C@@](CC=C(C)C)(C(=O)C(C(=O)c3ccc(O)c(O)c3)=C2O)[C@]1(C)CCC=C(C)C | Active | Active | Active | inactive | – | Active | – | – | – | – | – | – | –
CC1(C)C=Cc2c(cc3oc4c(O)c(O)ccc4c(=O)c3c2O)O1 | Active | inactive | Active | Active | – | Active | Active | Active | Active | – | – | Active | –
CC(C)=CCC/C(C)=C/CC/C(C)=C/CCC1(C)CCc2c(C)ccc(O)c2O1 (configuration not stated) | inactive | Active | inactive | inactive | – | – | – | – | – | – | – | – | –

Reference: ChEMBL document CHEMBL1250438, “Identification and evaluation of apoptotic compounds from Garcinia paucinervis” (Bioorg Med Chem, 2010)
